By Emax is commonly meant the maximal effect, on the per cent scale that the assay sets. A word on the pEC50: it is the EC50 on a negative log10 scale, so that one unit is a factor of ten. The low end stands for a large EC50, the high end for a small EC50.

The source of these data is patent US20180244611A1, “Modulators of the Cystic Fibrosis Transmembrane Conductance Regulator Protein and Methods of Use” (AbbVie S.à.r.l., priority 2017, published 2018).

pEC50: −log10 of the molar value.

Experiment [1] has as its target T1, F508delCFTR (Homo sapiens, UniProt P13569, DEL508-508).
T1 construct: expressed in transfected cells; host or cells: CFBE41o- human lung-derived epithelial cells (CFBE41o-F508delCFTR-HRP), doxycycline-inducible
The experiment can be described thus: Cell Surface Expression-Horse Radish Peroxidase (CSE-HRP) assay, test compound without co-corrector.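 For Emax: percent of on-plate 2 µM positive control corrector response over DMSO.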 Particulars: for Emax: maximum at any tested concentration, normalized to positive control, without co-corrector; for pEC50: test compound without co-corrector. The format is cell-based. In outline:
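CFBE41o- cells expressing F508delCFTR with HRP in the fourth exofacial loop, induced with 0.5 μg/mL doxycycline for 72 h at 37° C, then exposed to compound alone for 18-24 h at 33° C, 8-point 3-fold series from 20 μM. Surface HRP read by luminol luminescence, normalized to positive corrector control versus DMSO; EC50 from variable-slope sigmoidal fit of three replicate plates.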

Experiment [2] deals with T1, F508delCFTR. The experiment can be described thus: Cell Surface Expression-Horse Radish Peroxidase (CSE-HRP) assay, test compound with co-corrector.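 For Maximum % activity (with co-corrector): percent of 2 µM positive control corrector over DMSO; co-corrector is that same compound.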 The format is cell-based. Particulars: with 2 μM co-corrector; for Maximum % activity (with co-corrector): maximum at any tested concentration, normalized to positive control. Summed up: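 CFBE41o- cells expressing F508delCFTR with HRP in the fourth exofacial loop, induced with 0.5 μg/mL doxycycline for 72 h, then treated 18-24 h at 33° C. with compound (8 points, top 20 μM, 3-fold) plus 2 μM co-corrector. Surface HRP read by luminol luminescence; activity normalised to positive control, EC50 from variable-slope sigmoidal fit.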

T1 sequence (P13569 with tags, fused parts or gaps DEL508-508): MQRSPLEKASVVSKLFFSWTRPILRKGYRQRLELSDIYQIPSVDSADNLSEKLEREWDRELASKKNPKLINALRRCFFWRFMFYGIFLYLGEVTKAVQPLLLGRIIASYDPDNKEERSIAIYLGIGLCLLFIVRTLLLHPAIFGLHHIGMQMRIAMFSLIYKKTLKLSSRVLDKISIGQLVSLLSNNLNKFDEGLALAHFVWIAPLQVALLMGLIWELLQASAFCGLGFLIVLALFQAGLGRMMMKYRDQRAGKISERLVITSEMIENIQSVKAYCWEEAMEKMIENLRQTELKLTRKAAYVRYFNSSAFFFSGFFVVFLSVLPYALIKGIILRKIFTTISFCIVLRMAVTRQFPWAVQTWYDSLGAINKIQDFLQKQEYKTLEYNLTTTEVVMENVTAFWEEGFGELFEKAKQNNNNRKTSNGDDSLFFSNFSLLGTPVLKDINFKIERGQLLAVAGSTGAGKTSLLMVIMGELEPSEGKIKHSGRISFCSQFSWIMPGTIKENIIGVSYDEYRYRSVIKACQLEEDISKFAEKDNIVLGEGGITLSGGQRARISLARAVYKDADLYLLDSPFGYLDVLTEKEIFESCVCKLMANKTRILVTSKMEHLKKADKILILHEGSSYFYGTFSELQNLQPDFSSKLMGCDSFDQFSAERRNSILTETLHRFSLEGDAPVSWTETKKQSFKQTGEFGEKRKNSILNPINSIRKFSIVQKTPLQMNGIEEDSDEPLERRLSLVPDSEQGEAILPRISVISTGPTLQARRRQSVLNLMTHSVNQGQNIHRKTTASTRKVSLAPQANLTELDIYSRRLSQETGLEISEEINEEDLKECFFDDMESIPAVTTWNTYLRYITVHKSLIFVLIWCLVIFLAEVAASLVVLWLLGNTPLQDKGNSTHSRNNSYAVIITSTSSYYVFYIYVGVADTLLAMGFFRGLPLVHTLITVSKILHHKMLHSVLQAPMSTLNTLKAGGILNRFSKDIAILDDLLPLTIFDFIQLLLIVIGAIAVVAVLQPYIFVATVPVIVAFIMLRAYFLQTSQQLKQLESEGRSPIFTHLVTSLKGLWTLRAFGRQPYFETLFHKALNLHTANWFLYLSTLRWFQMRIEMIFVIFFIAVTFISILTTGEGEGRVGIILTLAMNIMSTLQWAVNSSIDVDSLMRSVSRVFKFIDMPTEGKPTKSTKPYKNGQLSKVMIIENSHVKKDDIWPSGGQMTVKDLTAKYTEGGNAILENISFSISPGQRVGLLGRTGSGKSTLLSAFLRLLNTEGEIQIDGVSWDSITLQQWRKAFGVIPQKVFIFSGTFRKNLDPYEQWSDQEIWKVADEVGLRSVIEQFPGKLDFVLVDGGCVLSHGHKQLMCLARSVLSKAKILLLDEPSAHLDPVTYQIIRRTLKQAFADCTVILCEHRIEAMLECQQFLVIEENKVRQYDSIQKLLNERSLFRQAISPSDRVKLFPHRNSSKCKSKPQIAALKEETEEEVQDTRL

With `COc1ccc(C2=CCOCC2)c2c1CCCC2C(=O)NS(=O)(=O)c1cccc2ccccc12` (stereo not drawn) [II-130], on F508delCFTR [1], the Emax is at least 150% and the pEC50 was over 5.52. Besides, on F508delCFTR [2], the “Maximum % activity (with co-corrector)” value is on record as “+++ (≥350)” and the negative-log EC50 (pEC50) was over 5.52.
At F508delCFTR [1], `COc1ccc(-c2ccc(C3CC3)nc2)c2c1CCCC2C(=O)NS(=O)(=O)c1cccc2ccccc12` (stereo not drawn) [II-131] gave an Emax of at least 150% and a pEC50 of over 5.52. Moreover, at F508delCFTR [2], the “Maximum % activity (with co-corrector)” value was “+++ (≥350)” and the pEC50 was over 5.52.
Regarding `COc1ccc(Br)c2c1C(C(=O)NS(=O)(=O)c1cccc3nc(C(C)C)ccc13)CC2` (stereo not drawn) [II-132], on F508delCFTR [1], the Emax is at least 150% and the pEC50 was over 5.52. Also, at F508delCFTR [2], the “Maximum % activity (with co-corrector)” value was “+++ (≥350)” and the pEC50 was over 5.52.
`COc1ccc(Br)c2c1C(C(=O)NS(=O)(=O)c1cccc3c(OC)cccc13)CC2` (stereo not drawn) [II-133]: on F508delCFTR [1], the Emax is at least 150% and the negative-log EC50 (pEC50) was 5.00 to 5.52. Also, on F508delCFTR [2], the “Maximum % activity (with co-corrector)” value is reported as “+++ (≥350)” and the pEC50 was 5.00 to 5.52.
At F508delCFTR [1], `COC(=O)c1ccc(OC)c2c1CCC2C(=O)NS(=O)(=O)c1cccc2ccccc12` (stereo not drawn) [II-134] gave an Emax of at least 150% and a pEC50 of 5.00 to 5.52. Also, at F508delCFTR [2], the “Maximum % activity (with co-corrector)” value was “+++ (≥350)” and the pEC50 was over 5.52.
In the same order, the values of `COC(=O)c1cccc2c(S(=O)(=O)NC(=O)C3CCc4c(Br)ccc(OC)c43)cccc12` (stereo not drawn) [II-135] are at least 150%, 5.00 to 5.52, “+++ (≥350)” and 5.00 to 5.52.
On F508delCFTR [1], `O=C(NS(=O)(=O)c1cccc2ccccc12)C1CCCc2c(Cl)ccc(OCCN3CCOCC3)c21` (stereo not drawn) [II-136] had an Emax of at least 150% and a negative logarithm of the EC50 (pEC50) of 5.00 to 5.52. Besides, at F508delCFTR [2], the “Maximum % activity (with co-corrector)” value is listed as “+++ (≥350)” and the pEC50 was 5.00 to 5.52.
At F508delCFTR [1], `CC1(C(=O)NS(=O)(=O)Cc2ccccc2)CCc2c(Cl)cccc21` (stereo not drawn) [III-3] had an Emax of under 50% and a pEC50 of at most 5.00. Further, at F508delCFTR [2], the “Maximum % activity (with co-corrector)” value is “+ (<150)” and the pEC50 was at most 5.00.
On F508delCFTR [1], `Cc1nn(C)c(C)c1S(=O)(=O)NC(=O)C1CCc2c(Cl)cccc21` (stereo not drawn) [III-4] gave an Emax of under 50% and a pEC50 of at most 5.00. For the same compound, at F508delCFTR [2], the “Maximum % activity (with co-corrector)” value was “+ (<150)” and the pEC50 was at most 5.00.
As to `COCCS(=O)(=O)NC(=O)C1CCc2c(Cl)cccc21` (stereo not drawn) [III-5], at F508delCFTR [1], the Emax was under 50% and the pEC50 was at most 5.00. Moreover, at F508delCFTR [2], the “Maximum % activity (with co-corrector)” value is reported as “+ (<150)” and the pEC50 was at most 5.00.
At F508delCFTR [1], `CCCS(=O)(=O)NC(=O)C1CCc2c(Cl)cccc21` (stereo not drawn) [III-6] showed an Emax of under 50% and a negative-log EC50 (pEC50) of at most 5.00. Further, at F508delCFTR [2], the “Maximum % activity (with co-corrector)” value is on record as “+ (<150)” and the pEC50 was at most 5.00.
On F508delCFTR [1], `COc1cccc2c1CC(C(=O)NS(=O)(=O)c1ccccc1C)CC2` (stereo not drawn) [III-7] showed an Emax of under 50% and a pEC50 of at most 5.00. At F508delCFTR [2], the “Maximum % activity (with co-corrector)” value is “++ (≥150 and <350)”; the pEC50 is 5.00 to 5.52.
At F508delCFTR [1], `COc1ccc2c(c1)CCC2C(=O)NS(=O)(=O)c1ccccc1C` (stereo not drawn) [III-9] had an Emax of under 50% and a pEC50 of at most 5.00. In addition, on F508delCFTR [2], the “Maximum % activity (with co-corrector)” value is “+ (<150)” and the pEC50 was at most 5.00.
On F508delCFTR [1], `Cc1ccccc1S(=O)(=O)NC(=O)C1CCc2ccccc2C1` (stereo not drawn) [III-10] showed an Emax of under 50% and a pEC50 of at most 5.00. At F508delCFTR [2], the “Maximum % activity (with co-corrector)” value was “+ (<150)” and the negative-log EC50 (pEC50) is at most 5.00.
On F508delCFTR [1], `COc1cccc2c1CCC2C(=O)NS(=O)(=O)c1c(C)nn(C)c1C` (stereo not drawn) [III-11] showed an Emax of under 50% and a negative-log EC50 (pEC50) of at most 5.00. Moreover, on F508delCFTR [2], the “Maximum % activity (with co-corrector)” value is “+ (<150)” and the pEC50 was at most 5.00.
